In EP4803094A2, “GLP-1/GIP DUAL, GLP-1/GCG DUAL AND GLP-1/GIP/GCG TRIPLE RECEPTOR AGONISTS” (Sun Pharmaceutical Industries Limited, priority 2023, dated 2024):
Marks after values point to notes of the source that are not given here.

How the values were obtained:
[1] = test system: Type 2 diabetes mouse (db/db) model; experiment: Efficacy study in db/db mice (blood glucose, body weight, food consumption); format: in vivo; settings: 10 nM/kg s.c. single dose, mean (n=6)
Procedure: The effect of the compounds as described herein on blood glucose, food intake and body weight were studied in mice. This study was performed in Type 2 diabetes mouse (db/db) model. The animals were divided into 9 treatment groups (n=6): a diabetic control group, Compound 12 (10 nM/kg), Compound 13 (10 nM/kg), Compound 26 (10 nM/kg), Compound 14 (10 nM/kg), Compound 15 (10 nM/kg), Compound 21 (10 nM/kg), Compound 22 (10 nM/kg), and Tirzepatide (10 nM/kg). Baseline blood glucose was measured from all the animals. All the animals were administered with test item subcutaneously. Blood glucose was measured at 4 hr, 8 hr, 12 hr, 24 hr, 48 hr, 72 hr, and 96 hr post treatment. Delta blood glucose (mM) was calculated. Body weight changes and cumulative food consumption were measured at 48 hr and 96 hr post treatment. Table 3. Effect on Blood Glucose

GCGR [2] = biological target: GCGR (Homo sapiens, UniProt P47871); experiment: Hit Hunter cAMP assay in cells stably expressing GCGR; format: cell-based; settings: values in nM, read-out: EC50 value GCG
From the text: (§1) Stably expressing GLP-1R, GIPR or GCGR cell lines were used to determine in-vitro potency of the compounds as described herein. Signaling by the GLP-1R, GIP-R, and GCG-R involves activation of adenylate cyclase and cAMP production. Hit Hunter® cAMP assays monitor the activation of GLP-1R, GIPR or GCGR via Gi and Gs secondary messenger signaling using a technology developed by DiscoverX which is called Enzyme Fragment Complementation (EFC) with β-galactosidase (β-Gal) as the functional reporter. The enzyme is split into two complementary portions: EA for Enzyme Acceptor and ED for Enzyme Donor. ED is fused to cAMP and in the assay competes with cAMP generated by cells for binding to a cAMP-specific antibody. Active β-Gal is formed by complementation of exogenous EA to any unbound ED cAMP. Active enzyme can then convert a chemiluminescent substrate, generating an output signal detectable on a standard microplate reader. Three different assays were performed using cells expressing either of the three receptors. cAMP Hunter cell lines were expanded from freezer stocks according to standard procedures. […] Microplates were read following signal generation with a PerkinElmer EnvisionTM instrument for chemiluminescent signal detection. […] Four parametric logistic curve was generated and EC50 was determined. […]

GIPR [3] = biological target: T1, GIPR (Homo sapiens, UniProt P48546); experiment: Hit Hunter cAMP assay in cells stably expressing GIPR; format: cell-based; settings: values in nM, read-out: EC50 value GIP
T1 sequence (P48546 22-466): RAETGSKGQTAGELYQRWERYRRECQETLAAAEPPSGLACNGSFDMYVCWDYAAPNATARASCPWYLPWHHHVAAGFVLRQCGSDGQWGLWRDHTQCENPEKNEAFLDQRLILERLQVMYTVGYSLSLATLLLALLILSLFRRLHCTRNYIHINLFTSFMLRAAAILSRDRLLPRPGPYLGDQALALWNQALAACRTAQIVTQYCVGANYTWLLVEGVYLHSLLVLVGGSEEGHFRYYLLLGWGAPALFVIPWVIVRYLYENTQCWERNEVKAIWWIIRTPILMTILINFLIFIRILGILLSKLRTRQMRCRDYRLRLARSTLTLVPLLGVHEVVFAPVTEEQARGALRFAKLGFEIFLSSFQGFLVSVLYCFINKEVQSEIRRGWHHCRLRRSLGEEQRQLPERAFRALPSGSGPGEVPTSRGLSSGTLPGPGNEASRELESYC
From the text: as §1

GLP-1R [4] = biological target: GLP-1R (Homo sapiens, UniProt P43220); experiment: Hit Hunter cAMP assay in cells stably expressing GLP-1R; format: cell-based; settings: GLP-1R-expressing cells, values in nM
From the text: as §1

GIPR [5] = biological target: T2, GIPR (UniProt P48546 22-466, limits assumed); experiment: cell-based or functional assay
T2 sequence (looked up): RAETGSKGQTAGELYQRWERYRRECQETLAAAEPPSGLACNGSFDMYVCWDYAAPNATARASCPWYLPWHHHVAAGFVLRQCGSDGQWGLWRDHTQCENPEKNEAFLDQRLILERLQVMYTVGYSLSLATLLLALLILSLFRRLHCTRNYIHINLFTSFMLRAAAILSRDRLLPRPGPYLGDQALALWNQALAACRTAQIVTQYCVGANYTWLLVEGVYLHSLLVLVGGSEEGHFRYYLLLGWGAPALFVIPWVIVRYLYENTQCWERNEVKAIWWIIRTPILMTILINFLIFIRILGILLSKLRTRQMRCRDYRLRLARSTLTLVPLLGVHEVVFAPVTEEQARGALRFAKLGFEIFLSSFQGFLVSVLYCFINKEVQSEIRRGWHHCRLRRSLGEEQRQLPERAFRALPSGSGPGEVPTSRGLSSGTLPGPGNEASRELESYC

GCGR [6] = biological target: GCGR (UniProt P47871 26-477, limits assumed); experiment: cell-based or functional assay
GLP-1R [7] = biological target: GLP-1R (UniProt P43220 24-463, limits assumed); experiment: cell-based or functional assay

GCGR (UniProt P47871 26-477, limits assumed), sequence (P47871 26-477 limits assumed): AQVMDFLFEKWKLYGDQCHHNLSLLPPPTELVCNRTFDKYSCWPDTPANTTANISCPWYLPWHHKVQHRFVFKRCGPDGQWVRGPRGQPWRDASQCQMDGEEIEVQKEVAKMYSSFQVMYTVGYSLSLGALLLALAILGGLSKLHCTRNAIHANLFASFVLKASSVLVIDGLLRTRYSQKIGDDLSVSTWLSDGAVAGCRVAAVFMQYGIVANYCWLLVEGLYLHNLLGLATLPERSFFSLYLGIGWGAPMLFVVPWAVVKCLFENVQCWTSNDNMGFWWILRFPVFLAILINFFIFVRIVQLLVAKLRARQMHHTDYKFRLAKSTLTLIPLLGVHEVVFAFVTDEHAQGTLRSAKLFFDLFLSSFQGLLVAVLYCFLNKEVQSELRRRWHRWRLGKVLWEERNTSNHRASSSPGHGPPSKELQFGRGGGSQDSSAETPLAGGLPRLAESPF
GCGR (Homo sapiens, UniProt P47871), sequence (P47871 26-477, species assumed): as the sequence (P47871 26-477 limits assumed) above
GLP-1R (Homo sapiens, UniProt P43220), sequence (P43220 24-463, species assumed): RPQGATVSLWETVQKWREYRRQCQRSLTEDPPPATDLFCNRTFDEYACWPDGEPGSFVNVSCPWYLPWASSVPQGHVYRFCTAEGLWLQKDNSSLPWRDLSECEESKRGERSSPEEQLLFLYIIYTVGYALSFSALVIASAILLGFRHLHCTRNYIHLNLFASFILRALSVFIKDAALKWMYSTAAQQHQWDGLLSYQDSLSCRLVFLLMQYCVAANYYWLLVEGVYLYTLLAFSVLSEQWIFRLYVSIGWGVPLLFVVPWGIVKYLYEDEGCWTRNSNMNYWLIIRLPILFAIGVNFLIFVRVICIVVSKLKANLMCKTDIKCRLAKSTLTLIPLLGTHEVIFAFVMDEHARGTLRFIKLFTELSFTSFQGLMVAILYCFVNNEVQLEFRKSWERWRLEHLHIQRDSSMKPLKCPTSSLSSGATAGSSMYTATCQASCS

## CC[C@H](C)[C@H](NC(=O)[C@H](Cc1ccccc1)NC(=O)[C@H](C)NC(=O)C(C)(C)NC(=O)[C@H](CCC(N)=O)NC(=O)[C@H](C)NC(=O)[C@H](CCCCNC(=O)COCCOCCNC(=O)C(C)(C)NC(=O)CC[C@H](NC(=O)CCCCCCCCCCCCCCCCCCC(=O)O)C(=O)O)NC(=O)[C@H](CCCCN)NC(=O)[C@H](CC(=O)O)NC(=O)[C@H](CC(C)C)NC(=O)[C@](C)(CC(C)C)NC(=O)[C@@H](NC(=O)[C@H](CO)NC(=O)[C@H](Cc1ccc(O)cc1)NC(=O)[C@H](CC(=O)O)NC(=O)[C@H](CO)NC(=O)[C@@H](NC(=O)[C@H](Cc1ccccc1)NC(=O)[C@@H](NC(=O)CNC(=O)[C@H](CCC(N)=O)NC(=O)C(C)(C)NC(=O)[C@@H](N)Cc1ccc(O)cc1)[C@@H](C)O)[C@@H](C)O)[C@@H](C)CC)C(=O)N[C@@H](CCC(=O)O)C(=O)N[C@@H](Cc1ccc(O)cc1)C(=O)N[C@@H](CC(C)C)C(=O)N[C@@H](CC(C)C)C(=O)N[C@@H](CCC(=O)O)C(=O)NCC(=O)NCC(=O)N1CCC[C@H]1C(=O)N[C@@H](CO)C(=O)N[C@@H](CO)C(=O)NCC(=O)N[C@@H](C)C(=O)N1CCC[C@H]1C(=O)N1CCC[C@H]1C(=O)N1CCC[C@H]1C(=O)N[C@@H](CO)C(N)=O [Compound 13]
[1]; 0-48 hr
  Cumulative Food Consumption (g) 0-48 hr: 4.1*** g
[1]; 0-96 hr
  Cumulative Food Consumption (g) 0-96 hr: 11.2*** g
[1]; 4 hr post treatment
  Delta Blood Glucose (mM): -7.4* mM
[1]; 8 hr post treatment
  Delta Blood Glucose: -5.7 mM
[1]; 12 hr post treatment
  Delta Blood Glucose (mM): -9.4** mM
[1]; 24 hr post treatment
  Delta Blood Glucose (mM): -14.4*** mM
[1]; 48 hr post treatment
  Delta Blood Glucose (mM): -13.9*** mM
[1]; 48 hr
  Body Weight Change (%) 48 hr: -10.3*** %
[1]; 72 hr post treatment
  Delta Blood Glucose (mM): -12.1*** mM
[1]; 96 hr post treatment
  Delta Blood Glucose: -5.6 mM
[1]; 96 hr
  Body Weight Change (%) 96 hr: -6.3*** %
GCGR [2]
  EC50: > 1.8 nM
GIPR [3]
  EC50: > 1.5 nM
GLP-1R [4]
  EC50: > 2.4 nM

B1: Compound 19 (peptide)
peptide: YXQGTFTSDYSIXLDKXAQXAFIEYLLEGGPSSGAPPPS
modifications: Aib at 2; αMethyl-Leu at 13; Lys 17 ε-amino acylated with Moiety C; Aib at 20; C-terminal amide
GIPR [5]
  EC50 value, cellular cAMP assay (Hit Hunter cAMP): 13.8 pM
GCGR [6]
  EC50 value, cellular cAMP assay (Hit Hunter cAMP): 109 pM
GLP-1R [7]
  EC50 value, cellular cAMP assay (Hit Hunter cAMP): 11.6 pM

B2: Compound 20 (peptide)
peptide: YXQGTFTSDYSIXLDKXAQXAFIEYLLEGGPSSGAPPPS
modifications: Aib at 2; αMethyl-Leu at 13; Lys 17 ε-amino acylated with Moiety D; Aib at 20; C-terminal amide
GIPR [5]
  EC50 value, cellular cAMP assay (Hit Hunter cAMP): 18.1 pM
GCGR [6]
  EC50 value, cellular cAMP assay (Hit Hunter cAMP): 140 pM
GLP-1R [7]
  EC50 value, cellular cAMP assay (Hit Hunter cAMP): 14.4 pM

B3: Compound 13 (peptide)
peptide: YXQGTFTSDYSIXLDKXAQXAFIEYLLEGGPSSGAPPPS
modifications: Aib at 2; αMethyl-Leu at 13; Lys 17 ε-amino acylated with Moiety B; Aib at 20; C-terminal amide
GIPR [5]
  EC50 value, cellular cAMP assay (Hit Hunter cAMP): > 1500 pM
GCGR [6]
  EC50 value, cellular cAMP assay (Hit Hunter cAMP): > 1800 pM
GLP-1R [7]
  EC50 value, cellular cAMP assay (Hit Hunter cAMP): > 2400 pM

B4: Compound 14 (peptide)
peptide: YXQGTFTSDYSIXLDKXAQXAFIEYLLEGGPSSGAPPPS
modifications: Aib at 2; norleucine at 13; Lys 17 ε-amino acylated with Moiety B; Aib at 20; C-terminal amide
GIPR [5]
  EC50 value, cellular cAMP assay (Hit Hunter cAMP): 24000 pM
GCGR [6]
  EC50 value, cellular cAMP assay (Hit Hunter cAMP): 20900 pM
GLP-1R [7]
  EC50 value, cellular cAMP assay (Hit Hunter cAMP): 8540 pM
